Results: patent publication US10206394B2, “Herbicidal compounds” (Syngenta Participations AG, priority 2014, dated 2019)
Like-named read-outs stand apart in the source and are kept apart here.

What was measured:
Assay type in all cases: in vivo
[1] = system: Winter Wheat variety 'Hereward'; test: Glasshouse assay for crop safety, post-emergence, +/- safener cloquintocet-mexyl (CQC), percentage phytotoxicity; conditions: 250 g/ha, evaluated after 13 days, 100=total damage, 0=no damage; for Post-emergence Crop Selectivity, percentage phytotoxicity, Wheat +CQC: with safener cloquintocet-mexyl (CQC) seed treatment 0.5 g/kg seed; for Post-emergence Crop Selectivity, percentage phytotoxicity, Wheat − CQC: without safener cloquintocet-mexyl (CQC)
Description: Test—Glasshouse Assay for Crop Safety.
Seeds of the Winter Wheat variety ‘Hereward’ were seed treated with a wettable powder formulation of the cereal herbicide safener, cloquintocet mexyl, at a rate of 0.5 grams per kilogram of dry seed prior to the initiation of glasshouse testing. Three seeds were sown per 1.5 inch plastic pot into a sandy loam soil at a depth of 1 cm, 8 days prior to application of the test compounds and was watered and grown under controlled conditions in a glasshouse (at 24/16° C., day/night; 14 hours light; 65% humidity). The plants were sprayed Post-emergence with an aqueous spray solution derived from the formulation of the technical active ingredient in acetone/water (50:50) solution containing 0.5% Tween 20 (polyoxyethelyene sorbitan monolaurate, CAS RN 9005-64-5).
The test plants were then grown in a glasshouse under controlled conditions (at 24/16° C., day/night; 14 hours light; 65% humidity) and watered twice daily. After 13 days for pre and post-emergence, the test was evaluated (100=total damage to plant; 0=no damage to plant).

Lolium perenne (LOLPE) = test: Glasshouse assay for herbicidal activity (pre- and post-emergence), percentage phytotoxicity; conditions: Lolium perenne, Rate 250 g/ha, 100%=total damage, 0%=no damage
In short: (§1)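 Percent injury was estimated by eye on a scale where 0% means no damage and 100% complete damage. Ratings came 15 DAA post-emergence and 20 DAA pre-emergence, with plants held under 16 h light and 65% humidity at 24/18 °C or 20/16 °C day/night.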

[2] = system: Echinochloa crus-galli (ECHCG); test: as above; conditions: Echinochloa crus-galli, Rate 250 g/ha, 100%=total damage, 0%=no damage
In short: as §1

Avena fatua (AVEFA) = test: as above; conditions: Avena fatua, Rate 250 g/ha, 100%=total damage, 0%=no damage
In short: as §1

[3] = system: Alopecurus myosuroides (ALOMY); test: as above; conditions: Alopecurus myosuroides, Rate 250 g/ha, 100%=total damage, 0%=no damage
In short: as §1

[4] = post-emergence, 360 h, post-emergence, assessed visually 15 DAA, read-out: Post-emergence herbicidal activity (percentage phytotoxicity) LOLPE POST
[5] = pre-emergence, 480 h, pre-emergence, assessed visually 20 DAA, read-out: Pre-emergence herbicidal activity (percentage phytotoxicity) LOLPE PRE
[6] = post-emergence, 360 h, post-emergence, assessed visually 15 DAA, read-out: Post-emergence herbicidal activity (percentage phytotoxicity) ECHCG POST
[7] = pre-emergence, 480 h, pre-emergence, assessed visually 20 DAA, read-out: Pre-emergence herbicidal activity (percentage phytotoxicity) ECHCG PRE
[8] = post-emergence, 360 h, post-emergence, assessed visually 15 DAA, read-out: Post-emergence herbicidal activity (percentage phytotoxicity) AVEFA POST
[9] = pre-emergence, 480 h, pre-emergence, assessed visually 20 DAA, read-out: Pre-emergence herbicidal activity (percentage phytotoxicity) AVEFA PRE
[10] = post-emergence, 360 h, post-emergence, assessed visually 15 DAA, read-out: Post-emergence herbicidal activity (percentage phytotoxicity) ALOMY POST
[11] = pre-emergence, 480 h, pre-emergence, assessed visually 20 DAA, read-out: Pre-emergence herbicidal activity (percentage phytotoxicity) ALOMY PRE
[12] = post-emergence, 360 h, post-emergence, visual assessment 15 DAA, read-out: Post-emergence herbicidal activity (percentage phytotoxicity) LOLPE POST
[13] = pre-emergence, 480 h, pre-emergence, visual assessment 20 DAA, read-out: Pre-emergence herbicidal activity (percentage phytotoxicity) LOLPE PRE
[14] = post-emergence, 360 h, post-emergence, visual assessment 15 DAA, read-out: Post-emergence herbicidal activity (percentage phytotoxicity) ECHCG POST
[15] = pre-emergence, 480 h, pre-emergence, visual assessment 20 DAA, read-out: Pre-emergence herbicidal activity (percentage phytotoxicity) ECHCG PRE
[16] = post-emergence, 360 h, post-emergence, visual assessment 15 DAA, read-out: Post-emergence herbicidal activity (percentage phytotoxicity) AVEFA POST
[17] = pre-emergence, 480 h, pre-emergence, visual assessment 20 DAA, read-out: Pre-emergence herbicidal activity (percentage phytotoxicity) AVEFA PRE
[18] = post-emergence, 360 h, post-emergence, visual assessment 15 DAA, read-out: Post-emergence herbicidal activity (percentage phytotoxicity) ALOMY POST
[19] = pre-emergence, 480 h, pre-emergence, visual assessment 20 DAA, read-out: Pre-emergence herbicidal activity (percentage phytotoxicity) ALOMY PRE

| SMILES | Post-emergence Crop Selectivity, percentage phytotoxicity, Wheat +CQC [1] [%] | Post-emergence Crop Selectivity, percentage phytotoxicity, Wheat − CQC [1] [%] | pest or weed control at 250 g/ha (Lolium perenne (LOLPE); [4]) [%] | pest or weed control at 250 g/ha (Lolium perenne (LOLPE); [5]) [%] | pest or weed control at 250 g/ha [2, 6] [%] | pest or weed control at 250 g/ha [2, 7] [%] | pest or weed control at 250 g/ha (Avena fatua (AVEFA); [8]) [%] | pest or weed control at 250 g/ha (Avena fatua (AVEFA); [9]) [%] | pest or weed control at 250 g/ha [3, 10] [%] | pest or weed control at 250 g/ha [3, 11] [%] | pest or weed control at 250 g/ha (Lolium perenne (LOLPE); [12]) [%] | pest or weed control at 250 g/ha (Lolium perenne (LOLPE); [13]) [%] | pest or weed control at 250 g/ha [2, 14] [%] | pest or weed control at 250 g/ha [2, 15] [%] | pest or weed control at 250 g/ha (Avena fatua (AVEFA); [16]) [%] | pest or weed control at 250 g/ha (Avena fatua (AVEFA); [17]) [%] | pest or weed control at 250 g/ha [3, 18] [%] | pest or weed control at 250 g/ha [3, 19] [%] |
| --- | --- | --- | --- | --- | --- | --- | --- | --- | --- | --- | --- | --- | --- | --- | --- | --- | --- | --- |
| Cc1cc(C)c(C2C(=O)CC(CC(=O)NCCc3ccccc3)C2=O)c(C)c1 (stereo not shown) [Compound A1, 2-[2,4-dioxo-3-(2,4,6-trimethylphenyl)cyclopentyl]-N-phenethyl-acetamide] | 0 | 60 | 80 | 100 | 80 | 90 | 60 | 60 | 60 | 60 |  |  |  |  |  |  |  |  |
| Cc1cc(C)c(C2C(=O)CC(CC(=O)NC(C)(C)C)C2=O)c(C)c1 (stereo not shown) [Compound A2, N-tert-butyl-2-[2,4-dioxo-3-(2,4,6-trimethylphenyl)cyclopentyl]-acetamide] | 10 | 10 | 80 | 80 | 50 | 70 | 70 | 10 | 80 | 80 |  |  |  |  |  |  |  |  |
| CCC(C)NC(=O)CC1CC(=O)C(c2c(C)cc(C)cc2C)C1=O (stereo not shown) [Compound A3] | 10 | 60 | 90 | 100 | 90 | 100 | 90 | 90 | 90 | 100 |  |  |  |  |  |  |  |  |
| Cc1cc(C)c(C2C(=O)CC(CC(=O)NCc3ccccc3)C2=O)c(C)c1 (stereo not shown) [Compound A4] | 10 | 60 | 90 | 80 | 80 | 70 | 80 | 30 | 50 | 50 |  |  |  |  |  |  |  |  |
| Cc1cc(C)c(C2C(=O)CC(CC(=O)NCC(C)C)C2=O)c(C)c1 (stereo not shown) [Compound A5] | 10 | 80 | 80 | 100 | 80 | 100 | 80 | 70 | 90 | 100 |  |  |  |  |  |  |  |  |
| Cc1cc(C)c(C2C(=O)CC(CC(=O)NCc3cccs3)C2=O)c(C)c1 (stereo not shown) [Compound A6] | 10 | 70 | 90 | 100 | 90 | 100 | 90 | 60 | 90 | 90 |  |  |  |  |  |  |  |  |
| Cc1cc(C)c(C2C(=O)CC(CC(=O)NC(C)C)C2=O)c(C)c1 (stereo not shown) [Compound A7] | 20 | 30 | 100 | 100 | 100 | 90 | 90 | 60 | 90 | 80 |  |  |  |  |  |  |  |  |
| COCCCNC(=O)CC1CC(OC(=O)C(C)(C)C)=C(c2c(C)cc(C)cc2C)C1=O (stereo not shown) [Compound P10] |  |  |  |  |  |  |  |  |  |  | 90 | 90 | 90 | 90 | 90 | 60 | 90 | 90 |
| Cc1cc(C)c(C2=C(OC(=O)C(C)(C)C)CC(CC(N)=O)C2=O)c(C)c1 (stereo not shown) [Compound P11] |  |  |  |  |  |  |  |  |  |  | 90 | 80 | 90 | 90 | 90 | 30 | 80 | 70 |
| Cc1cc(C)c(C2=C(OC(=O)C(C)(C)C)CC(CC(=O)N(C(=O)C(C)(C)C)C3COC3)C2=O)c(C)c1 (stereo not shown) [Compound P12] |  |  |  |  |  |  |  |  |  |  | 80 | 60 | 60 | 70 | 60 | 0 | 80 | 20 |
| Cc1cc(C)c(C2=C(OC(=O)C(C)(C)C)CC(CC(=O)NC3COC3)C2=O)c(C)c1 (stereo not shown) [Compound P13] |  |  |  |  |  |  |  |  |  |  | 70 | 10 | 80 | 20 | 70 | 10 | 80 | 50 |
| Cc1cc(C)c(C2=C(OC(=O)C(C)(C)C)CC(CC(=O)N(C(=O)C(C)(C)C)C3(C)COC3)C2=O)c(C)c1 (stereo not shown) [Compound P14] |  |  |  |  |  |  |  |  |  |  | 80 | 70 | 70 | 70 | 80 | 10 | 80 | 70 |
| Cc1cc(C)c(C2=C(OC(=O)C(C)(C)C)CC(CC(=O)NC3(C)COC3)C2=O)c(C)c1 (stereo not shown) [Compound P15] |  |  |  |  |  |  |  |  |  |  | 80 | 80 | 80 | 100 | 80 | 40 | 90 | 70 |
